Patent publication US9101613B2, “Methods for treating neurological disease” (Neurim Pharmaceuticals (1991) Ltd., priority 2006, dated 2015)
Like-named read-outs stand apart in the source and are kept apart here. Marks after values point to notes of the source that are not given here.

Key:
5-HT2C receptor = biological target: T1, 5-HT2C receptor (Homo sapiens, UniProt P28335); assay: Serotonin receptor binding, [3H] Mesulergine, CHO-K1 membranes
T1 construct: expressed in transfected cells; host or cells: CHO-K1
T1 sequence (P28335 33-458): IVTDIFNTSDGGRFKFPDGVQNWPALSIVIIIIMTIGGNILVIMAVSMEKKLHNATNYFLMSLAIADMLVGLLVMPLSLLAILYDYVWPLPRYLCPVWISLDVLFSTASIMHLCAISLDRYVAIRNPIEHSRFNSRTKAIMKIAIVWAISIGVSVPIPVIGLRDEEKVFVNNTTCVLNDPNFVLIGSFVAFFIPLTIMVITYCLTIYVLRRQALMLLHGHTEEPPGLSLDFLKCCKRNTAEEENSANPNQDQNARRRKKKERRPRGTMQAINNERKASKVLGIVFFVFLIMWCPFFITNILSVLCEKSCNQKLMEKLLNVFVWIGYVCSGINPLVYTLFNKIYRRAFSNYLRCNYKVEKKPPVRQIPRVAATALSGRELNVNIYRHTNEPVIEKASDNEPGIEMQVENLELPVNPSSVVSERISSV
Protocol: Aliquots of suspended membranes of human recombinant CHO-K1 cells stably expressing human 5-HT1A, 5-HT2A, 5-HT1B, 5-HT2B, 5-HT2C, 5-HT4, 5-HT6 or 5-HT7 receptors were pre-incubated at 25° C. with 1.5 nM [^3H] 8-OH-DPAT (5-HT1A), 1.5 nM [^3H] Ketanserin (5-HT2A), 0.01 nM [^125I] Cyanopindolol (5-HT1B), 1 nM [^3H] Mesulergine (5-HT2c), 0.7 nM [^3H] GR-113808 (5-HT4) or at 37° C. 1.2 nM [^3H] LSD (5-HT2B, 5-HT6 and 5-HT7) in buffer (50 mM Tris-HCl, pH 7.7) alone or in the presence of 1 nM, 10 nM, 0.1 μM, 1 μM, and 10 μM of N-[2-(5-methoxy-indol-3-yl)-ethyl]-commenamide, N-[2-(5-methoxy-indol-3-yl)-ethyl]-coumalylamide, N-[2-(5-methoxy-indol-3-yl)-ethyl]-comanilamide, N-[2-(5-methoxy-indol-3-yl)-ethyl]-2-methoxy-commenamide or N-[2-(5-methoxy-indol-3-yl)-ethyl]-chelidonamide for 60 minutes. The binding reaction was terminated and washed with 4 ml ice-cold 50 mM Tris-HCl buffer by vacuum filtration. Membranes were then collected, and the filters containing the bound ligands were assayed for the amount of radioactivity in a b-counter. Non-specific binding was evaluated using a reaction with 10 μM metergoline (5-HT1A), 1 μM mianserin (5-HT2A and 5-HT2c) or 10 μM serotonin (5-HT1B, 5-HT2B, 5-HT4, 5-HT6 and 5-HT7).

mice = assay: Rotarod assay, interaction with diazepam; assay type: in vivo; conditions: for Incidence of performance (rotarod): 15 rpm; for effect on rotarod performance: compound alone i.p., 15 rpm rotation speed;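 for Incidence of performance (rotarod): Success means running more than 120 min on the rod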
Protocol: The incidences of animals running more than […] on the rotating rod were noted, and significances were calculated by non-parametric x^2 test. 8 mice/group were used.
The rotarod apparatus is divided into five test zones, so that up to five mice may be tested at the same time. The rod has been specially machined to provide a suitable grip for the animal. The diameter of the rod is 3.5 cm. The rotation speed was 15 rpm. When the animal falls off the rotating rod, it presses a button to record automatically the time spent on the rod. On the day before the experiment the mice were trained to run on the rod rotating with 15 rpm. Diazepam was administered orally 60 min before the rotarod assay, test substances were administered intraperitoneally 15 min before testing.

[1] = tested on: rat primary cortical neurons; assay: Neurite outgrowth in rat primary cortical neurons; assay type: cell-based
Protocol: The aim of this study was to assess the potential effect of N-[2-(5-methoxy-indol-3-yl)-ethyl]-comanilamide (100 nM) after 5 days of culture on neurite outgrowth in rat primary cortical neurons. The study used three separate cultures (n=6 wells per condition); the mean value of the 3 cultures (+/−sem) was calculated.
Rat cortical neurons were cultured as described by Singer et al., 1999. Briefly pregnant female rats of 15 days gestation are killed by cervical dislocation (Rats Wistar; Janvier) and the fetuses removed from the uterus. The cortex are removed and placed in ice-cold medium of Leibovitz (L15; Invitrogen) containing 1% of Penicillin-Streptomycin (PS; Invitrogen) and 1% of bovine serum albumin (BSA; Sigma). Cortex are dissociated by trypsinisation for 20 min at 37° C. (Trypsin EDTA 1×; Invitrogen) diluted in PBS without calcium and magnesium. The reaction is stopped by the addition of Dulbecco's modified Eagle's medium (DMEM; Invitrogen) containing DNAase I grade II (0.1 mg/ml; Roche Diagnostic) and 10% of fetal calf serum (FCS; Invitrogen). Cells are then mechanically dissociated by 3 passages through a 10 ml pipette. Cells are then centrifuged at 180×g for 10 min at 10° C. The supernatant is discarded and the cells of pellet are re-suspended in a defined culture medium consisting of Neurobasal (Invitrogen) supplemented with B27 (2%; Invitrogen), L-glutamine (0.2 mM; Invitrogen) and 1% of PS solution with 10 ng/ml of Brain-derived neurotrophic factor (BDNF).
For the neurite outgrowth assay, the cells are seed with test compound A (at 100 nM) and reference compound (BDNF at 10 ng/ml used as reference control) on defined medium (Neurobasal supplemented with 2% of B27, 0.2 mM of L-glutamine and 1% of PS).
The cultures were done (a) without BDNF in order to analyse the neurotrophic effect of compounds alone and (b) with low BDNF concentration (0.5 ng/ml) in order to analyse the synergic neurotrophic effect of N-[2-(5-methoxy-indol-3-yl)-ethyl]-comanilamide with the growth factor.
After 5 days of culture in presence of N-[2-(5-methoxy-indol-3-yl)-ethyl]-comanilamide and reference, cells were fixed by a cool solution of ethanol (95%) and acetic acid (5%) for 10 min. After permeabilization with 0.1% of saponin, cells were incubated with monoclonal antibody anti microtubule associated protein 2 (MAP-2; Sigma). This antibody stains specifically cell bodies and neurite of neurons. […] Nuclei of neurons were labeled by a fluorescent marker (Hoechst solution, SIGMA). Per well, 20 pictures were taken using InCell Analyzer™ 1000 (GE Healthcare) with 20× magnification. All images were done in the same conditions. Analysis of the neuritis networks and neuron were assessed using Developer software (GE Healthcare). […]

[2] = Diazepam 1.5 mg/kg p.o. + compound 5 mg/kg i.p.
[3] = Diazepam 1.5 mg/kg p.o. + compound 20 mg/kg i.p.
[4] = Diazepam 1.5 mg/kg p.o. + compound 50 mg/kg i.p.
[5] = Vehicle p.o. + compound 5 mg/kg i.p.
[6] = Vehicle p.o. + compound 20 mg/kg i.p.
[7] = Vehicle p.o. + compound 50 mg/kg i.p.

SMILES | IC50 (5-HT2C receptor; read-out: 5-HT2C IC50) | Ki (5-HT2C receptor; read-out: 5-HT2C KI) | IC50 (5-HT2C receptor) | Ki (5-HT2C receptor) | Incidence of performance (rotarod) (mice; [2]) | Incidence of performance (rotarod) (mice; [3]) | Incidence of performance (rotarod) (mice; [4]) | Incidence of performance (rotarod) (mice; [5]) | Incidence of performance (rotarod) (mice; [6]) | Incidence of performance (rotarod) (mice; [7]) | effect on rotarod performance (mice) | neurotrophic effect, compound alone ([1]; 100 nM alone in the culture medium, without BDNF) | activity at 0.1 µM ([1]; Rattus norvegicus, Primary cortical neuron, 120 h, 100 nM + BDNF 0.5 ng/ml, 5 days of culture, read-out: neurite length, % of control)
COc1ccc2[nH]cc(CCNC(=O)c3cc(=O)cc(C(=O)O)o3)c2c1 [N-[2-5-methoxy-indol-3-yl)-ethyl]-chelidonamide] | 11.2 µM | 5.8 µM |  |  |  |  |  |  |  |  |  |  | 
COc1ccc2[nH]cc(CCNC(=O)c3cc(=O)c(O)co3)c2c1 [N-[2-(5-methoxy-indol-3-yl)-ethyl]-commenamide] |  |  | 7.2 µM | 3.8 µM | 5/8 | 3/8** | 1/8*** | 8/8 | 5/8 | 5/8 | dose dependently impaired the performance |  | 
COc1ccc2[nH]cc(CCNC(=O)c3cc(=O)cco3)c2c1 [N-[2-(5-methoxy-indol-3-yl)-ethyl]-comanilamide] |  |  |  |  | 4/8* | 2/8*** | 1/8*** | 6/8 | 5/8 | 5/8 | dose dependently impaired the performance | no neurotrophic effect | ~145%
